Molecular target: T1, FABP7 (Brain fatty acid binding protein) (Homo sapiens, UniProt O15540)
T1 sequence (O15540 2-132): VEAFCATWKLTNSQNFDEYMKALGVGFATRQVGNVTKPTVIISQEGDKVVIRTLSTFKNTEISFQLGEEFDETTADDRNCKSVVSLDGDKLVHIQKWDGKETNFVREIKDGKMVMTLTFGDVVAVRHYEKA
Assay: microscale thermophoresis

| SMILES | Kd [nM] |
| --- | --- |
| CC/C=C\C/C=C\C/C=C\C/C=C\C/C=C\C/C=C\CCC(=O)O [DHA, docosahexaenoic acid] | ~500 |
| CCCCCCCC/C=C\CCCCCCCC(=O)O [OA, oleic acid] | ~500 |
| CCCCCCCCCCCCCCCCCC(=O)O [SA, stearic acid] | ~500 |

From doi:10.1101/2021.10.22.465361v1 (biorxiv, 2021)
